Test system: patients with type 2 diabetes at high vascular risk
Test: Cardiovascular and Renal Outcomes Trial: linagliptin 5 mg once daily vs placebo on top of standard of care
Format: in vivo
Method: The effect of linagliptin on cardiovascular risk in adult patients with type 2 diabetes mellitus and with increased CV risk evidenced by a history of established macrovascular or renal disease (e.g. as defined herein) was evaluated in a multi-center, multi-national, randomized, double-blind parallel group trial. The trial compared the risk of experiencing a major adverse cardiovascular event (MACE) between linagliptin and placebo when these were added to and used concomitantly with standard of care treatments for diabetes (HbA1c), cardiovascular risk factors and renal disease.
The primary endpoint in this trial was the time to first occurrence of three point (3P) MACE. A major adverse cardiac event was defined as a cardiovascular death or a nonfatal myocardial infarction (MI) or a nonfatal stroke. The statistical analysis plan tested for non-inferiority for the occurrence of (3P) MACE. […] The secondary endpoint was a renal composite, defined as renal death or sustained end stage renal disease or sustained decrease of 40% or more in eGFR.
Type 2 diabetes patient with insufficient glycemic control (naïve or pre-treated with any antidiabetic background medication, excluding treatment with GLP-1 receptor agonists, DPP-4inhibitors or SGLT-2 inhibitors if ≥consecutive 7 days, e.g. having HbA1c 6.5-10%), and high risk of cardiovascular events, e.g. defined by: • albuminuria (micro or macro) and previous macrovascular disease: e.g. defined according to Condition I as indicated below; • and/or • impaired renal function: e.g. as defined according to Condition II as indicated below;
Background and aims: People with type 2 diabetes (T2D) are at increased risk for hospitalization for heart failure (hHF), particularly in the setting of concomitant cardiovascular (CV) and/or kidney disease. […] Here we present analyses of HF outcomes with the DPP-4 inhibitor linagliptin (LINA) vs. placebo (PBO) from a Cardiovascular and Renal Outcomes Trial assessing cardiovascular safety and renal microvascular outcome in patients with type 2 diabetes at high vascular risk, a large CV outcomes trial that enrolled participants with T2D at high risk for hHF due to concomitant CV and/or chronic kidney disease. Materials and methods: People with T2D and concomitant CV and/or kidney disease were randomized to receive LINA 5 mg, or PBO once daily (1:1), on top of standard of care. All hHF, CV outcomes, and deaths were centrally adjudicated, with individual and composite HF-related outcomes analyses comparing LINA vs. placebo. Investigator-reported HF-related adverse events, whether or not confirmed by adjudication, were also analyzed. A Cox proportional hazards model adjusting for region and history of HF was used for analyses of first events. Recurrent hHF events were analyzed using a negative binomial model.
Methods: The present Cardiovascular and Renal Outcomes Trial randomized people with T2D and i) concomitant CV disease with UACR >30 mg/g or ii) prevalent CKD (i.e. GFR <45 ml/min/1.73m2 and/or UACR >200 mg/g) to receive the DPP-4 inhibitor linagliptin (5 mg) or placebo once daily in a double-blind fashion. The primary CV endpoint was 3P-MACE, with a key secondary kidney endpoint (adjudicated ESKD, renal death, or sustained ≥40% decrease in eGFR from baseline) and other renal outcomes (including albuminuria and eGFR slope) also assessed. Subgroups were assessed by baseline kidney function (eGFR ≥/<45 ml/min/1.73m2and eGFR ≥/<30, 45 or 60 ml/min/1.73m2).
Adults with type 2 diabetes, HbA1c 6.5-10.0% inclusive, and high CV risk were eligible for inclusion. […] Macrovascular disease eligibility criteria was based on documented and confirmed history of myocardial infarction, coronary artery disease, stroke, carotid artery disease, or peripheral artery disease. Participants with end-stage kidney disease (ESKD), defined as eGFR <15 or requiring maintenance dialysis, were excluded.

[1] = eGFR ≥45 to <60 mL/min/1.73 m^2

## CC#CCn1c(N2CCC[C@@H](N)C2)nc2c1c(=O)n(Cc1nc(C)c3ccccc3n1)c(=O)n2C [Linagliptin, 1-[(4-methyl-quinazolin-2-yl)methyl]-3-methyl-7-(2-butyn-1-yl)-8-(3-(R)-amino-piperidin-1-yl)-xanthine]
eGFR ≥ 45 (n = 3979)
  Renal death, sustained ESKD, or ≥ doubling of se-creatinine: n: 54
  Renal death, sustained ESKD, or ≥ doubling of se-creatinine: rate/100 patient-years: 1.38 per 100 patient-years
[1]
  3-point MACE: hazard ratio vs placebo: 1.12
  3-point MACE: patients with event/patients analyzed: 81/690
  Key secondary kidney outcome: hazard ratio vs placebo: 0.94
  Key secondary kidney outcome: patients with event/patients analyzed: 51/690
eGFR ≥60 mL/min/1.73 m^2
  3-point MACE: hazard ratio vs placebo: 0.96
  3-point MACE: patients with event/patients analyzed: 103/1294
  Key secondary kidney outcome: hazard ratio vs placebo: 1.46
  Key secondary kidney outcome: patients with event/patients analyzed: 54/1294
First event of composite
  Non-fatal MI as component of 3-point MACE primary outcome: %: (4.4) %
  Non-fatal MI as component of 3-point MACE primary outcome: no.: 154
  Non-fatal stroke as component of 3-point MACE primary outcome: %: (1.7) %
  Non-fatal stroke as component of 3-point MACE primary outcome: no.: 59
In vivo
  4-point MACE (3-point MACE or hospitalization for unstable angina): no.: 463
  4-point MACE: %: (13.3) %
  4-point MACE: hazard ratio vs placebo: 1.00
  4-point MACE: rate/1000 patient-years: 62.0 per 1000 patient years
  Acute pancreatitis, adjudication confirmed: %: 0.3%
  Acute pancreatitis, adjudication confirmed: N: 9^1
  Adverse events leading to discontinuation: %: 10.3%
  Adverse events leading to discontinuation: N: 359
  Albuminuria progression: rate/100 patient-years: 21.36 per 100 patient-years
  Albuminuria progression: rate/1000 patient-years: 213.6 per 1000 patient years
  All cancers (malignancies): %: 3.3%
  All cancers (malignancies): N: 116
  Angioedema events with concomitant ACE/ARB use at baseline: %: 0.45%
  Angioedema events with concomitant ACE/ARB use at baseline: N: 13
  Any adverse events: %: 77.2%
  Changes in body weight or waist circumference vs placebo, in words: No clinically meaningful differences
  Changes in weight, systolic and diastolic blood pressure and LDL/HDL cholesterol vs placebo, in words: no different between groups
  Chronic pancreatitis, adjudication confirmed: %: 0.1%
  Chronic pancreatitis, adjudication confirmed: N: 2
  Colon cancer: %: 0.2%
  Colon cancer: N: 6
  Composite microvascular endpoint (renal and eye outcomes): number of patients: 785
  Composite microvascular endpoint: hazard ratio (95% CI) vs placebo: 0.86
  Composite microvascular endpoint: rate/1000 patient-years: 221.4 per 1000 patient years
  Composite ocular endpoint: hazard ratio vs placebo: 0.73
  Composite ocular endpoint: number of patients: 36
  Composite ocular endpoint: rate/1000 patient-years: 4.7 per 1000 patient years
  Composite renal endpoint 2 (50% eGFR) and composite renal endpoint 3 (30% eGFR with eGFR <60) vs placebo, in words: No significant difference
  Confirmed hypoglycemic adverse events with plasma glucose <54 mg/dl or severe event: %: 15.9%
  Confirmed hypoglycemic adverse events with plasma glucose <54 mg/dl or severe event: N: 557
  Contributing to composite microvascular outcome: patients with retinal laser coagulation or anti-VEGF injection for diabetic retinopathy, %: 0.2%
  Contributing to composite microvascular outcome: patients with sustained >50% eGFR decrease, %: 0.6%
  Contributing to composite microvascular outcome: patients with sustained ESKD, %: 0.3%
  Contributing to composite microvascular outcome: patients with vitreous haemorrhage, %: 0.1%
  Contributing to composite ocular outcome: patients with anti-VEGF injection for diabetic retinopathy, %: 0.3%
  Contributing to composite ocular outcome: patients with diabetes related blindness, %: 0.1%
  Contributing to composite ocular outcome: patients with retinal laser coagulation, %: 0.2%
  Contributing to composite ocular outcome: patients with vitreous haemorrhage, %: 0.5%
  Coronary revascularization procedure: %: (4.6) %
  Coronary revascularization procedure: hazard ratio vs placebo: 1.07
  Coronary revascularization procedure: no.: 160
  Coronary revascularization procedure: rate/1000 patient-years: 21.2 per 1000 patient years
  Difference between treatment groups in HbA1c changes from baseline over time, in words: significant up to the Week 132 visit
  Fasting plasma glucose (FPG) vs placebo, in words: significant differences observed between the treatment groups up to Week 84
  Fatal myocardial infarction: %: (0.3) %
  Fatal myocardial infarction: hazard ratio vs placebo: 0.78
  Fatal myocardial infarction: no.: 11
  Fatal myocardial infarction: rate/1000 patient-years: 1.4 per 1000 patient years
  Fatal or non-fatal myocardial infarction: %: (4.7) %
  Fatal or non-fatal myocardial infarction: hazard ratio vs placebo: 1.12
  Fatal or non-fatal myocardial infarction: no.: 165
  Fatal or non-fatal myocardial infarction: rate/1000 patient-years: 21.8 per 1000 patient years
  Fatal or non-fatal stroke: %: (2.3) %
  Fatal or non-fatal stroke: hazard ratio vs placebo: 0.91
  Fatal or non-fatal stroke: no.: 81
  Fatal or non-fatal stroke: rate/1000 patient-years: 10.6 per 1000 patient years
  Fatal stroke: %: (0.5) %
  Fatal stroke: hazard ratio vs placebo: 1.05
  Fatal stroke: no.: 17
  Fatal stroke: rate/1000 patient-years: 2.2 per 1000 patient years
  Gastric cancer: %: 0.0%
  Gastric cancer: N: 0
  Hospitalization for heart failure or cardiovascular death: %: (11.6) %
  Hospitalization for heart failure or cardiovascular death: hazard ratio vs placebo: 0.94
  Hospitalization for heart failure or cardiovascular death: no.: 406
  Hospitalization for heart failure or cardiovascular death: rate per 100 person-years: 5.37 per 100 person-years
  Hospitalization for heart failure or cardiovascular death: rate/1000 patient-years: 53.7 per 1000 patient years
  Hospitalization for unstable angina: %: (1.2) %
  Hospitalization for unstable angina: hazard ratio vs placebo: 0.87
  Hospitalization for unstable angina: no.: 42
